Here are results for two molecules from US20240057587A1, “ORGANIC AMMONIUM SALT AND HYDROGEN-BONDING MATERIAL TREATMENT AGENT USING SAME” (MIYOSHI OIL & FAT CO.,LTD., priority 2019, published 2024).

Where two headings read alike, the source gives them in different places.

Series [1] deals with T1, urease (Canavalia ensiformis, UniProt P07374). Format: biochemical, sword bean. The settings on record: solid sample, 40° C., 80% RH, after 30 days.
The conditions of series [2]: dispersion liquid dried at 50° C. under reduced pressure for three hours, 0.50 g water added, remixed; visual.
The target in series [3] is T2, cytochrome C (Equus caballus, UniProt P00004).
T2 construct: a reagent produced by NACALAI TESQUE, INC; (Horse Heart, molecular weight 12384) was used; purchased NACALAI TESQUE, INC; host or cells: horse heart (tissue origin)
Nature of the series: Protein long-term stability (IR and UV spectrum), solid sample. More on the design: species or system Horse. The settings on record: cytochrome C, solid sample, 40° C., 80% RH, after 30 days.

The nature of series [4]: Carbon nanotube dispersibility test. It is filed as physicochemical. As to conditions: 0.25 g compound, 0.75 g water, 0.025 g carbon nanotubes; visual.
The conditions of series [5]: 0.25 g compound, 0.50 g water, 0.10 g zinc oxide; visual.
For series [6], the system named is DNA. Put plainly: DNA long-term stability, 50% aqueous solution. As to conditions: 40° C., 80% RH.
The conditions of series [7]: Vali Fast Black 3830 dispersion liquid dried at 50° C. under reduced pressure for three hours, 0.7 g water added, remixed; visual.
The target of series [8] is T2, cytochrome C. Nature of the series: Protein long-term stability, 50% aqueous solution. Details: species or system Horse. The settings on record: cytochrome C in 50 wt % aqueous solution of compound; 40° C.; after 30 days; 1:1.
Series [9] in a line: Metal oxide dispersibility test (titanium oxide). It is filed as physicochemical. The settings on record: 0.25 g compound, 0.50 g water, 0.10 g titanium oxide (IV); visual.
The conditions of series [10]: 0.25 g compound, 0.50 g water, 0.10 g barium titanate; visual.
Series [11] has as its target T1, urease. It is filed as biochemical, sword bean. As to conditions: urease in 50 wt % aqueous solution of compound; 40° C., 80% RH; after 30 days; Stabilizer:Enzyme = 1:1.
The conditions of series [12]: dispersion liquid dried at 50° C. under reduced pressure for three hours, 0.50 g water added, remixed; visual. This is another data set of the same source.
A short description of series [13]: Organic dye dispersibility test. Format: physicochemical. As to conditions: 0.2 g compound, 0.7 g water, 0.1 g Vali Fast Black 3830; ultrasonic dispersion; after 24 hours; visual.
In series [14] the target is T1, urease. It is filed as biochemical, sword bean. The settings on record: urease, 40° C., 80% RH, after 30 days, 1:1; for Enzyme activity retention rate (%) (after 30 days) Stabilizer:Enzyme = 1:1, Mixed by mortar: solid sample mixed by mortar; for Enzyme activity retention rate (%) (after 30 days) Stabilizer:Enzyme = 1:1, Solvent distilled away from dissolution solution: solid sample.

The nature of series [15]: Metal oxide dispersibility test (zirconium oxide). It is filed as physicochemical. The settings on record: 0.25 g compound, 0.50 g water, 0.10 g zirconium oxide (IV); visual.

T1 sequence (P07374 whole entry, looked up): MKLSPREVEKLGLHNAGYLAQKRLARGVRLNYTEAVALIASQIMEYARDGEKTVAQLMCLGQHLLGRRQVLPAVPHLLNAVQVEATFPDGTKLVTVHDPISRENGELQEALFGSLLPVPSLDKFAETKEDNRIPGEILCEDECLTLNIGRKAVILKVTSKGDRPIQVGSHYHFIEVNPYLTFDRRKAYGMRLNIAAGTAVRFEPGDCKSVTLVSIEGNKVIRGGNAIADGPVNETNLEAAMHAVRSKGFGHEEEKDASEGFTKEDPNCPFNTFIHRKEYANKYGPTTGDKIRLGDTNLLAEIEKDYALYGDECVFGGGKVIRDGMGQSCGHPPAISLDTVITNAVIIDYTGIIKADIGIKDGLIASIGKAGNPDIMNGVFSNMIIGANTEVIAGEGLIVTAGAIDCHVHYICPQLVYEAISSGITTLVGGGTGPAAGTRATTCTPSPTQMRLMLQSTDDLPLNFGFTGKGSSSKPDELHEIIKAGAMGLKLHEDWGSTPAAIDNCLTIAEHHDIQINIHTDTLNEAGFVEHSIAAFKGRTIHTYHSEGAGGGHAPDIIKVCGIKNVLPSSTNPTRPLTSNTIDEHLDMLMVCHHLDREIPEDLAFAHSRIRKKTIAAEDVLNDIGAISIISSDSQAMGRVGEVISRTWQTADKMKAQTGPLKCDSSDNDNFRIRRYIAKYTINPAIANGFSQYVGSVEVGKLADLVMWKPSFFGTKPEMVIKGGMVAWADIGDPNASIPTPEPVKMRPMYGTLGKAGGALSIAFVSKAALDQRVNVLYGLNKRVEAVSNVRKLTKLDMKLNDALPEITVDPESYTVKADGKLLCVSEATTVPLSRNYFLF
T2 sequence (P00004 whole entry): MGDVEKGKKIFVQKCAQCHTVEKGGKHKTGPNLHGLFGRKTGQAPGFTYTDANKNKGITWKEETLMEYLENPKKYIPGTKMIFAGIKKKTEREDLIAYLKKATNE

Regarding `NC(CO)(CO)CO` [Working example 48], in series [1], the “Enzyme activity retention rate(%) (after 30 days) Stabilizer: Enzyme = 0.1:1” value was determined as 18%, the “Enzyme activity retention rate(%) (after 30 days) Stabilizer: Enzyme = 1:1” value (“Enzyme activity retention rate(%) … Enzyme = 1:1” below) turned out to be 48% and the “Enzyme activity retention rate(%) (after 30 days) Stabilizer: Enzyme = 10:1” value worked out at 52%. Besides, the “Redispersibility Zirconium oxide” value in series [2] is on record as “○ ○ ○ ○”. Besides, in series [3], the “Protein long-term stability (after 30 days) Stabilizer: Protein = 0.1:1” value was “◯”, the “Protein long-term stability (after 30 days) Stabilizer: Protein = 1:1” value is on record as “◯” and the “Protein long-term stability (after 30 days) Stabilizer: Protein = 10:1” value is “◯”. Also, the Carbon nanotube dispersibility result in series [4] was “○ ○”. Further, the Zinc oxide dispersibility result in series [5] was “○ ○ ○ ○”. Also, the “DNA long-term stability (after 30 days) Stabilizer: DNA = 1:1” value in [6] is recorded as “○ ○”. Also, in [7], the “Redispersibility Dye” value is “○ ○ ○ ○”. Also, in [8], the “Protein long-term stability (after 30 days) Stabilize:Protein = 1:1” value is listed as “○”. Besides, in [9], the Titanium oxide dispersibility entry is recorded as “○ ○ ○ ○”. The Barium titanate dispersibility result in series [10] was “○ ○ ○ ○”. The “Enzyme activity retention rate(%) … Enzyme = 1:1” value in [11] came out at 30%. For the same molecule, in [12], the “Redispersibility Titanium oxide” value is “○ ○ ○ ○”. Moreover, the Dye dispersibility result in series [13] is listed as “○ ○ ○ ○”. Further, in series [14], the “Enzyme activity retention rate (%) (after 30 days) Stabilizer:Enzyme = 1:1, Mixed by mortar” value came to 9% and the “Enzyme activity retention rate (%) (after 30 days) Stabilizer:Enzyme = 1:1, Solvent distilled away from dissolution solution” value was determined as 48%. Moreover, the Zirconium oxide dispersibility result in series [15] is “○ ○ ○ ○”.

For the molecule `NC(CO)(CO)CO` [Working example 28], in series [1], the “Enzyme activity retention rate(%) (after 30 days) Stabilizer: Enzyme = 0.1:1” value is on record as 15%, the “Enzyme activity retention rate(%) … Enzyme = 1:1” value worked out at 65% and the “Enzyme activity retention rate(%) (after 30 days) Stabilizer: Enzyme = 10:1” value worked out at 35%. Further, the “Redispersibility Zirconium oxide” value in series [2] is reported as “○ ○ ○ ○”. For the same molecule, in [3], the “Protein long-term stability (after 30 days) Stabilizer: Protein = 0.1:1” value is listed as “◯”, the “Protein long-term stability (after 30 days) Stabilizer: Protein = 1:1” value is “◯” and the “Protein long-term stability (after 30 days) Stabilizer: Protein = 10:1” value is given as “◯”. In addition, the Carbon nanotube dispersibility entry in series [4] is recorded as “○ ○”. Further, in series [5], the Zinc oxide dispersibility result is given as “○ ○ ○ ○”. Besides, the “DNA long-term stability (after 30 days) Stabilizer: DNA = 1:1” value in series [6] is “○ ○”. For the same molecule, the “Redispersibility Dye” value in series [7] is on record as “○ ○ ○ ○”. Moreover, the “Protein long-term stability (after 30 days) Stabilize:Protein = 1:1” value in series [8] is “○ ○ ○”. The Titanium oxide dispersibility entry in series [9] was “○ ○ ○ ○”. In addition, the Barium titanate dispersibility entry in [10] is “○ ○ ○ ○”. In addition, the “Enzyme activity retention rate(%) … Enzyme = 1:1” value in [11] is 15%. The “Redispersibility Titanium oxide” value in series [12] is listed as “○ ○ ○ ○”. In [13], the Dye dispersibility entry is on record as “○ ○ ○ ○”. Moreover, in [14], the “Enzyme activity retention rate (%) (after 30 days) Stabilizer:Enzyme = 1:1, Mixed by mortar” value was determined as 12% and the “Enzyme activity retention rate (%) (after 30 days) Stabilizer:Enzyme = 1:1, Solvent distilled away from dissolution solution” value turned out to be 65%. Also, the Zirconium oxide dispersibility entry in series [15] was “○ ○ ○ ○”.
